Measurements as given in patent publication US20140024716A1, “Composition Comprising S-Allyl-L-Cysteine as Active Ingredient for Preventing or Treating Gastrointestinal Disorders” (PHARMAKING CO., LTD., priority 2009, published 2014).
“Also recorded” adds a separate entry of the source. Where two headings read alike, the source gives them in different places.

Columns and labels:
Helicobacter pylori = test: Serologic parameters (GOT, GPT) in Helicobacter pylori-infected mouse model; type: in vivo, C57BL/6 mice; conditions: SAC1 and SAC2 groups
Method: 8-week old male C57BL/6 mice were classified into 4 groups, i.e., a positive control group (to which Helicobacter pylori was administered; PC), a negative control group (to which saline was administered; NC), experimental group 1 (to which Helicobacter pylori and 200 mg/kg of SAC were administered; SAC1), and experimental group 2 (to which Helicobacter pylori and 400 mg/kg of SAC were administered; SAC2). Each group had 10 mice. White powdered SAC was diluted in tap water to concentrations of 20 mg/mL and 40 mg/mL and 10 μl/g (body weight) of the diluted SAC was orally administered to the mice of the SAC1 and SAC2 groups three times a week for 10 weeks. The mice were given free access to tap water for the entire test period. The Helicobacter pylori was collected with saline to a concentration of 1×10^9 CFU/mL, and 0.2 mL of the diluted Helicobacter pylori was orally administered to each mouse for 8 weeks from 2 weeks after SAC administration. The mice were fasted for 8 hours before the infection, and 0.15 mL of 0.2 M sodium bicarbonate (NaHCO3) was administered to each mouse 10 minutes before the administration of Helicobacter pylori in order to neutralize acidified stomach due to the fasting. The same amount of saline instead of the infectious substances was administered into the NC group. The mice of all groups were fed with a normal diet. […]

[1] = system: gastric lesions of rats induced by hydrochloric acid-ethanol; test: Hydrochloric acid-ethanol-induced gastric lesion animal model; type: in vivo, Sprague-Dawley rats; conditions: for lengths of gastric lesions: 1 h before HCl-ethanol; for lengths of gastric lesions / gastric lesion inhibiting rate (%): p<0.01
Excerpt: SAC was purchased from TCI Chemical Co. (Tokyo, Japan). Sterile water for injection (Model No. 73H5F21, Dae Han Pharmaceutical Co. Ltd.) was used as a vehicle, and Stillen® was used as a positive control material. 0.5% CMC-Na and sterile water for injection were used as excipients for Stillen®. Hydrochloric acid was purchased from Samjung Chemical, Co., ethanol was purchased from Baker, Co., aspirin was purchased from Sigma, Co., and indomethacin was purchased from Sigma, Co.
7 to 8-week old male specific pathogen free (SPF) HsdKoat:Sprague-Dawley®™ SD®™rats (weight of 7-week old males was in the range of 208.44 to 227.39 g, and weight of 8-week old maleswas in the range of 223.85 to 245.03 g, purchased from Koatech, Co. Ltd., Gyunggido, Korea) were quarantined and acclimated in the Animal Lab for 7 days. The rats were bred at a temperature of 23 3° C., at a relative humidity of 55 15%, with light for 12 hours (light turned on at 08:00 and light turned off at 20:00) while air was ventilated 10 to 20 times/hr in the Animal Experiment Lab of Gyeonggi Bio-Center. Other environments for breeding which might influence the test for the entire test period were not considered for use. The rats were given free access to a solid laboratory diet (Harlan Co. Ltd., USA. Teklad certified global 18% protein rodent diet, 2918C) that was supplied by Folas International. […] The rats were given free access to tap water that was sterilized using a UV sterilizer and a micro filter with water bottles.
The rats were classified into a vehicle control group G1 to which only a vehicle was administered, a experimental group G2 to which 100 mg/kg of SAC was administered, a experimental group G3 to which 200 mg/kg of SAC was administered, a experimental group G4 to which 400 mg/kg of SAC was administered, and a positive control group G5 to which 100 mg/kg of Stillen® (55.6 mg/kg as an active ingredient) as a positive control material were administered. Each group included 8 rats in a hydrochloric acid-ethanol-induced animal model (Experiment Example 7) and included 6 rats in an aspirin-induced animal model (Experimental Example 8) and in an indomethacin-induced animal model (Experimental Example 9).
The test substance was directly administered to the stomach using an injection tube equipped with a sonde for oral administration in a single dose once per day.
The test substances were administered. After one hour, 1.5 ml of 150 mM HCl in 60% ethanol was orally administered to each rat. The rats to which ethanol and SAC were administered were fasted without water in stainless steel breeding cages for 1 hour. After one hour from the hydrochloric acid-ethanol administration, the rats were sacrificed under anesthesia using ether and their stomachs including parts of the duodenum and esophagus were isolated. The insides of the stomachs were immediately washed with 13 ml of a 2% neutral buffered formalin, and the duodenum and esophagus parts were fixed with forceps. Then, 13 ml of the 2% neutral buffered formalin was added thereto and maintained for 5 minutes for fixation. The greater curvature of each stomach was incised, fixed to a dissection table, and unfolded to measure the lengths of gastric lesions using vernier calipers. Photographs of the unfolded stomachs were taken (FIG. 12) and the stomachs were fixed with a 10% neutral buffered formalin. […]

[2] = design: species or system C57BL/6 mice; conditions: mouse, in vivo
Method: S-allyl-L-Cysteine (SAC) was purchased from TCI Chemical Co. (Tokyo, Japan). Helicobacter pylori was American Type Culture Collection (ATCC) 43504 (cagA+, vacA s1-ml type) and cultured in a Mueller Hinton-Agar broth at 37° C. for 48 hours, under 5% CO2 microaerophilic conditions with a concentration of 1×10^9 CFU/ml.
8-week old male specific pathogen free (SPF) C57BL/6 mice were used. Weights of the mice were measured in the Animal Lab, Department of Pathology, the College of Veterinary Medicine, Kyungbook National University. Then, the mice were classified into 4 groups and bred such that average weights of each group are similar to each other. The mice were acclimated and bred in the Animal Lab, Department of Pathology, the College of Veterinary Medicine, Kyungbook National University at a temperature of 22±3° C., at a relative humidity of 50±10%, with light for 12 hours (light turned on at 08:00 and light turned off at 20:00) by an automatic temperature and humidity control system. Other environments for breeding which might influence the test for the entire test period were not considered for use. […]
Weights of male C57BL/6 mice infected with Helicobacter pylori ere measured three times a week for the entire 10-week test period to observe weight changes of the mice.

C=CCSC[C@H](N)C(=O)O [SAC, S-allyl-L-cysteine]
serum GPT level versus PC group (Helicobacter pylori; not significantly different): less than that of the PC group; also recorded: less than the positive control group
serum GOT level versus PC group (Helicobacter pylori; not significantly different (p<0.08)): less than that of the PC group; also recorded: less than the positive control group
lengths of gastric lesions ([1]; 200 mg/kg SAC oral, vehicle 209.60±28.39 mm): 106.65±16.70 mm
gastric lesion inhibiting rate (%) ([1]; 200 mg/kg SAC): 41.12±7.97%
lengths of gastric lesions ([1]; 400 mg/kg SAC oral): 72.25±19.33 mm
gastric lesion inhibiting rate (%) ([1]; 400 mg/kg SAC): 65.53±9.22%
gastric lesion inhibiting rate (%) up to ([1]; highest rate over SAC doses): about 66%
weight increase rate less than the PC group by ([2]; 200 mg/kg): 2%
weight increase rate less than the PC group by ([2]; 400 mg/kg): 0.2%
